From PMC9084902, “Low-Molecular Weight Protamine Overcomes Chondroitin Sulfate Inhibition of Neural Regeneration” (Frontiers in Cell and Developmental Biology, 2022) come the findings set out here.

Entries after “also recorded” stand apart in the source; their conditions may differ.

Assay [1] relates to hippocampal neurons. Kind of assay: neurite outgrowth on aggrecan substrate, hippocampal neurons. In kind it is cell-based, Wistar rat. To be noted: 10 μg/ml, n = 3. As to the method:
(§1) The cortex or hippocampus were obtained from 17 days-old Wistar rat embryos and transferred to ice-cold preparation solution. Neurons were further isolated exactly as described earlier in Sahu’s publication ([Sahu et al., 2019]). Primary rat cortical or hippocampal neurons (E17 Wistar rats) were cultured in 96-well plates at the density of 20000 cells/well in Neurobasal medium supplemented with B27 serum substitute, penicillin, streptomycin and L-glutamate for 2 days in vitro (DIV). The plates were precoated with aggrecan (5 ug/ml, 150 µl/well). Protamine or protamine peptides were added to the culture medium at different concentrations. To analyze the effect of protamine or its fragment on neurite outgrowth, the plates were coated with 10 μg/ml of protamine or LMWP. For the experiment with chondroitinase, the aggrecan-coated plates were treated with chondroitinase ABC (Amsbio AMS. E1028, lot CF0029) for 4 h followed by 2 times washing with PBS before cell plating, and the cell culture imaging was carried out after 3 DIV incubation with 4 uM LMWP added to the medium. Neurite outgrowth was imaged with phase contrast microscopy (Olympus IX70 microscope and Retiga 2000R digital camera) using both x10 and x20 objectives. Processes of neurons over the diameter of the neuronal soma were interpreted as neurites. Neurite length was measured with ImageJ software and averaged from 2 to 3 independent experiments with 1–2 technical replicas in each independent experiment.

Assay [2] has as its system hippocampal neurons. As to the kind of experiment: neurite outgrowth on precoated plastic without aggrecan, hippocampal neurons. In kind it is cell-based, Wistar rat. To be noted: precoated 10 μg/ml on plastic, no aggrecan, 2 days; about 70 neurons/replicate; p < 0.0001, n = 7. As to the method:
as §1, with “Processes of neurons over the diameter of the neuronal soma were interpreted as neurites.” left out

Assay [3] has as its system PTPσ ectodomain binding to aggrecan. Kind of assay: solid phase binding of wild-type PTPσ ectodomain to aggrecan, competition by LMWP. The text has this: The N-terminal extracellular part of PTPσ (protein tyrosine phosphatase sigma; PTPRS) that contains the three Ig domains (amino acids 1-321) and mediates CSPG binding ([Shen et al., 2009]) was cloned using the PTPσ cDNA kindly provided by Dr. John Flanagan (Harvard University). The PTPσ mutant lacking the CS binding site in the Ig1 domain was produced as described ([Shen et al., 2009]). The recombinants were produced as Fc-tagged proteins in 293T HEK cells and purified on protein A Sepharose.
The competition assay for LMWP in binding of PTPσ to aggrecan was done in a similar way as earlier ([Paveliev et al., 2016]). Briefly, after overnight coating with 10 μg/ml aggrecan (150 ul/well) at 4°C 96-well tissue culture plates (Nunc) were washed two times with 0.05% Tween-20 in PBS and were blocked for 1 h at room temperature with 1%BSA and 0.05% Tween-20 in PBS. The recombinant wild type PTPσ ectodomain or the mutated ectodomain lacking CS binding (80 nM) were mixed with different concentrations of LMWP in 1% BSA and 0.05% Tween-20 in PBS, and were incubated in the plates overnight at 4°C. After washing with 0.05% Tween20 (3 times, room temperature), the wells were incubated for 1 h (room temperature) with HRP conjugated goat anti-human FC part of IgG (1:5000, in 1% BSA and 0.05% Tween20 PBS) to detect the bound PTPσ. […]

For assay [4], the system named is mouse cervical hemisection model. Kind of assay: cylinder test, C5 hemisection, ICV delivery. To be noted: n = 5–10. The class given is in vivo, C57BL6/NHsd mouse. As to the method:
(§2) The mouse was placed into the glass cylinder of 13 cm in diameter and 15 cm high. A mirror was positioned at the angle behind the cylinder for better observation. The mouse was videotaped for the first 20 exploratory vertical rearings or for 5 min. The number of rearings in which the mouse used the right (impaired), the left or both limbs for support against the wall was measured. Paw preference was calculated as the ratio of total number of left limb use (left + both) to total number of right (impaired) limb use (right + both). A trial with less than 5 rearings within 5 min was excluded from the analysis.

The subject of assay [5] is mouse cervical hemicontusion model. Kind of assay: vertical screen test, C5 hemicontusion, ICV delivery. The class given is in vivo, C57BL6/NHsd mouse. To be noted: n = 6–11. How it is done:
The mouse was placed on the brink of a horizontal wire screen (25 × 22 cm, diameter of wires 2 mm spaced at 1 cm) faced to edge. Immediately after that the screen was turned vertically to place the mouse to the upside down position at the lower edge. The time that the animal needed to climb to the upper edge was measured during 1 min. If the animal was not able to climb up or fell down from the screen the maximum time 60 s was marked as the climbing time. The average parameter of three subsequent trials repeated with at least 1 min interval was used for data analysis.

Assay [6] has the same test system. As to the kind of experiment: cylinder test, C5 hemicontusion, ICV delivery. In kind it is in vivo, C57BL6/NHsd mouse. To be noted: ICV LMWP; weeks 4, 6 and 8; n = 6–11. How it is done:
as §2

Assay [7] has the same test system. Kind of assay: cylinder test, C5 hemicontusion, subcutaneous delivery. The class given is in vivo, C57BL6/NHsd mouse. To be noted: 16 µg s.c. daily 49 days; n = 7–13; difference not statistically significant. As to the method:
The effectiveness of systemically delivered LMWP in treatment of spinal cord trauma was tested in the cervical hemicontusion model (Figure 1B). Baseline behavior was assessed 1 week before the trauma surgery, and the results were used for balanced distribution of animals to the 3 experimental groups (“sham”, “trauma + PBS” and “trauma + LMWP”). Each housing cage contained animals from all three groups. Subcutaneous injections to the back area were started on the next day after the trauma and continued daily for 49 days. LMWP was injected subcutaneously at the 16 µg dose in 200 µl of sterile PBS. The groups “sham” and “trauma + PBS” got the same volume of PBS. Behavioral assessment was started 2 weeks after the trauma and finished at the week 12.
as §2

Where [8] appears, read: ICV LMWP 4 µl of 1 mg/ml daily, 6 days from day 3.

With “VSRRRRRRGGRRRR [LMWP, low-molecular weight protamine]”, the “reversal of the inhibitory effect of aggrecan on neurite outgrowth (comparison among fragments)” value with hippocampal neurons [1] (hippocampal neurons (E17 rat), 2 days on aggrecan, precoated with aggrecan or soluble in medium, about 70 neurons/replicate, normalized to control, Figure 2L) is “more effective in reversing the inhibitory effect of aggrecan than the 22 amino acid fragment or the full-length protamine”. In the assay on hippocampal neurons [1] (precoated with aggrecan, 2 days, 10 neurons per condition per experiment, Supplementary Figure S1B,E), the “length of the longest neurite, versus uncoated control” value is reported as “slightly reduces the length of the longest neurite”. The “increase in number of branches” value in the assay on hippocampal neurons [1] (precoated with aggrecan, 2 days, 10 neurons per condition per experiment, Supplementary Figure S1C,F) came out at 3 fold. The total neurite length entry in the assay with hippocampal neurons [1] (precoated with aggrecan, 2 days, Figure 2 and Supplementary Figure S1A,D) is listed as “increase in the total neurite length”. In the assay on hippocampal neurons [2], the “total neurite length versus uncoated control” value is “increased the total neurite length as compared to the parallel control cultures”. Also, in assay [3] (80 nM PTPσ-Fc, 10 μg/ml aggrecan coating, increasing LMWP, overnight 4°C, HRP anti-Fc/OPD 492 nm, n = 3, Figure 5C), the “inhibition of PTPσ binding to aggrecan” value is “progressively decreased by increasing LMWP concentrations; also recorded: clearly inhibited PTPσ binding to aggrecan in a similar manner as HB-GAM”. Moreover, the “similarity of LMWP to mutated PTPσ in binding suppression” value in assay [3] (aggrecan substrate, increasing LMWP concentrations) was “mimicked the binding suppression effect seen with the mutated PTPσ”. In addition, in assay [4] (setting [8]), the “front paw use asymmetry (injured versus non-injured side)” value is “reduction of front paw use asymmetry at the weeks 2, 4, 8 and 9 after the trauma; also recorded: less asymmetry in frontpaw use when the injured side was compared to the non-injured side”; the ipsilateral paw use entry was “partially improved the ipsilateral paw use”. The “ipsilateral paw use versus sham” value in assay [4] (ICV LMWP, week 2 p = 0.4201, week 4 p = 0.2766, week 8 p = 0.1092, week 9 p = 0.1659, PBS group differed from sham at all weeks) is “not significantly different from the sham animals”. Moreover, in assay [5] (setting [8]), the “vertical climbing test, time course” value is on record as “progressive improvement in the vertical climbing test; also recorded: progressively improve the climbing function in the vertical screen test starting from the week 3 after the trauma induction”. Further, in assay [5] (ICV LMWP, week 3 p = 0.1508, week 4 p = 0.1311, week 5 p = 0.6967, PBS group differed from sham until week 5), the “climbing time versus sham after second post-trauma week” value was “did not reveal a significant difference after the second post-trauma week”. Moreover, in assay [6], the “ipsilateral front paw use versus sham” value was “reduction in front paw use asymmetry starting from the week 4 after the trauma; also recorded: not significantly different from the sham group on the weeks 4, 6 and 8 after the trauma”. In assay [7], the “front paw use asymmetry versus PBS” value is “tendency for better improvement of the LMWP group compared to the PBS group although the difference was not statistically significant”.
